Data as given in patent EP2332528A1, “Substituted aromatic dicarbonic acid amides as medicaments” (Grünenthal GmbH, priority 2009, dated 2011).

System: vGLUT1- bzw. vGLUT2-Transporter
Test: Glutamate uptake in rat crude synaptic vesicles ([3H]-glutamate uptake)
Type: biochemical, Ratte
Conditions: for IC50: read-out: VGLUT (Ratte), IC50; for VGLUT (Ratte), Hemmung [%]: test concentration not given
Description: I. Funktionelle Untersuchung an den vGLUT1- bzw. vGLUT2-Transportern
Die agonistische bzw. antagonistische Wirkung der zu untersuchenden Verbindungen am vGLUT1- bzw. vGLUT2-Transporter der Spezies Ratte kann mit folgendem Assay bestimmt werden.
Glutamat-Uptake in Rattenvesikel ('rat crude synaptic vesicles')
Die Präparation von Vesikeln wurde aus Rattengehirn-Homogenaten (männlichen Ratten, Stamm Wistar SPF, 150-250 g Gewicht) durchgeführt gemäß Roseth et al. (1995) J. Neurochem. 65: 96-103, der sich auf Whittaker et al. (1964) Biochem J. 90, 293-303 und Fykse und Fonnum (1988) J. Neurochem. 50: 1237-1242 bezieht.
Hierzu wurden frisch entnommene Rattengehirne in 0,32 M Saccharose, 10 mM TRIS-maleat, 1 mM EGTA, pH 7,4 (10 ml/g Frischgewicht) mit einem Potter-Homogenisator (Fa. Braun/Melsungen; 5 Kolbenhübe bei 800 Upm) unter Eiskühlung homogenisiert und anschließend für 10 Minuten bei 3.000 g und 4°C zentrifugiert. Der resultierende Überstand wurde bei 20.000 g für 30 Minuten bei 4°C zentrifugiert. Das entstandene Pellet wurde dann im Verhältnis 1:3 mit 10 mM TRIS-maleate, 0,1 mM EGTA, pH 7,4 osmotisch geschockt und die Suspension bei 17000g für 30 min (4°C) zentrifugiert. Die im Überstand verbliebenen Vesikel wurden nun auf einen Dichtegradienten aus 0,6 M Saccharose in 10 mM TRIS-maleat, 1 mM EGTA, pH 7.4 und 0.4 M Saccharose in 10 mM TRIS-maleat, 1 mM EGTA, pH 7.4 geschichtet. Eine Ultrazentrifugation der Gradienten im Ausschwingrotor bei 65000g für 2h (4°C) schloss sich an. Die Vesikel-Fraktion wurde von der 0.4 M Saccharose-Bande isoliert und im Uptake-Versuch eingesetzt.
Die Substratlösung für den Uptake von [^3H]-Glutamat bestand aus ATP (neutralisiert mit Trisma base; 2 mM im Endansatz), Glutamat (0.5 mM im Endansatz) und ^3H-Glutamat (0.5 µCi im Endansatz). In 14 ml-Reagiergefäßen (Sarstedt, Artikel-Nr.: 798438) wurden jeweils 0,3 ml Gesamtvolumina (n=2/Probe) pipettiert in der folgenden Reihenfolge: 1.) 165 µl Inkubationspuffer (110 mM Kaliumtartrat, 10 mM TRIS-maleat, pH 7,4, 4 mM MgCl2), 2.) 10 µl Testsubstanz oder Vehikelkontrolle oder blank, 3.) 100 µl synaptische Vesikel. Es schloss sich eine Vorinkubation von 15 min bei 30°C an (nur blank-Ansätze befanden sich hierbei auf Eis). Danach wurde der Uptake durch Zugabe von 25 µl der oben beschriebenen Substratlösung gestartet. Die Reaktion wurde nach 5 min durch Zugabe von 7,0 ml eiskalter 150 mM KCI gestoppt. Anschließend wurden die Proben mit Hilfe des Brandel Cell Harvesters Typ M-24R über einen Membranfilter der Porengröße 0,8 µm abgesaugt und zweimal mit eiskalter 150 mM KCI nachgewaschen. Die Messung erfolgte am beta-Counter nach 15 h in 10 ml Szintillatorflüssigkeit (Filter Count).
Die Affinität der Verbindungen der allgemeinen Formel (I) für den vGLUT1- bzw. vGLUT2-Transporter wurde wie vorstehend beschrieben bestimmt (Pharmakologische Methoden).

| Compound | IC50 [nM] | VGLUT (Ratte), Hemmung [%] |
| --- | --- | --- |
| O=C(Nc1ccccc1C(=O)O)c1ccc(C(=O)Nc2ccccc2C(=O)O)cc1 [Beispiel 1, 2-(4-(2-Carboxyphenylcarbamoyl)benzamido)benzoesäure] | 1290 | 91 |
| O=C(Nc1ccccc1C(=O)O)c1cccc(C(=O)Nc2ccccc2C(=O)O)c1 [Beispiel 2, 2-(3-(2-Carboxyphenylcarbamoyl)benzamido)benzoesäure] | 3350 | 78 |
| O=C(Nc1ccccc1C(=O)O)c1ccc(Oc2ccc(C(=O)Nc3ccccc3C(=O)O)cc2)cc1 [Beispiel 3, 2-(4-(4-(2-Carboxyphenylcarbamoyl)phenoxy)benzamido)-benzoesäure] | 2260 | 88 |
| O=C(Nc1cc([N+](=O)[O-])ccc1C(=O)O)c1cccc(C(=O)Nc2cc([N+](=O)[O-])ccc2C(=O)O)c1 [Beispiel 4, 2-(3-(2-Carboxy-5-nitrophenylcarbamoyl)benzamido)-4-nitrobenzoesäure] | 320 | 92 |
| O=C(Nc1cc([N+](=O)[O-])ccc1C(=O)O)c1ccc(C(=O)Nc2cc([N+](=O)[O-])ccc2C(=O)O)cc1 [Beispiel 5, 2-(4-(2-Carboxy-5-nitrophenylcarbamoyl)benzamido)-4-nitrobenzoesäure] | 860 | 88 |
